Assay results reported in ChEMBL document CHEMBL4808195, “Discovery of heterocyclic substituted dihydropyrazoles as potent anticancer agents” (Bioorg Med Chem Lett, 2021).

Legend:
HCC1806 [1] = test: Anticancer activity against human HCC1806 cells assessed as inhibition of cell growth at 10 uM measured by SRB method; assay type: functional
MDA-MB-231 = test: Anticancer activity against human MDA-MB-231 cells assessed as inhibition of cell growth at 10 uM measured by SRB method; assay type: functional
NCI-H1975 = test: Anticancer activity against human NCI-H1975 cells assessed as inhibition of cell growth at 10 uM measured by SRB method; assay type: functional
A549 = test: Anticancer activity against human A549 cells assessed as inhibition of cell proliferation; assay type: functional, cell-based
HeLa = test: Anticancer activity against human HeLa cells assessed as inhibition of cell proliferation; assay type: functional, cell-based
HCC1806 [2] = test: Anticancer activity against human HCC1806 cells assessed as inhibition of cell proliferation; assay type: functional, cell-based
HCT-116 = test: Anticancer activity against human HCT-116 cells assessed as inhibition of cell proliferation; assay type: functional, cell-based

IC50 (A549) [µM]	IC50 (HeLa) [µM]	IC50 (HCC1806 [2]) [µM]	IC50 (HCT-116) [µM]	SMILES	inhibition at 10 µM (HCC1806 [1]) [%]	inhibition at 10 µM (MDA-MB-231) [%]	inhibition at 10 µM (NCI-H1975) [%]
				CN1CCN(c2ccc(C3=NN(C(=O)c4ccc(F)cc4)C(c4ccc(N(C)C)cc4)C3)cc2)CC1 (stereo unspecified)	31.8	3.5	32.2
				CC(=O)N1N=C(c2ccc(N3CCN(C)CC3)cc2)CC1c1ccc(N(C)C)cc1 (stereo unspecified)	-0.8	-1	-1.9
				CN1CCN(c2ccc(C3=NN(C(=O)Cc4ccccc4)C(c4ccc(N(C)C)cc4)C3)cc2)CC1 (stereo unspecified)	1	1.9	-2.8
				COC(=O)CC(=O)N1N=C(c2ccc(-n3cncn3)cc2)CC1c1ccc(N(C)C)cc1 (stereo unspecified)	-7.8	6.8	1.5
				Cc1ccc(S(=O)(=O)N2N=C(c3ccc(-n4cncn4)cc3)CC2c2ccc(N(C)C)cc2)cc1 (stereo unspecified)	27.7	20.7	20
				Cc1ccc(C(=O)N2N=C(c3ccc(N4CCN(C)CC4)cc3)CC2c2ccc(N(C)C)cc2)cc1 (stereo unspecified)	-2.5	-0.7	-0.4
				CN(C)c1ccc(C2CC(c3ccc(-n4cncn4)cc3)=NN2C(=O)c2cc(Cl)cc(Cl)c2)cc1 (stereo unspecified)	5.3	9.4	8.4
> 10	> 10	9.05	> 10	CN1CCN(c2ccc(C3=NN(C(=O)/C=C/c4ccccc4)C(c4ccc(N(C)C)cc4)C3)cc2)CC1 (stereo unspecified)	71	35.9	81
				CN1CCN(c2ccc(C3=NN(S(=O)(=O)c4ccc(C(F)(F)F)cc4)C(c4ccc(N(C)C)cc4)C3)cc2)CC1 (stereo unspecified)	27	12.1	18.9
				CN(C)c1ccc(C2CC(c3ccc(-n4cncn4)cc3)=NN2S(=O)(=O)c2ccc(C#N)cc2)cc1 (stereo unspecified)	35.1	32.8	22.6
				Cc1ccc(S(=O)(=O)N2N=C(c3ccc(-n4ccnc4)cc3)CC2c2ccc(N(C)C)cc2)cc1 (stereo unspecified)	66	50.8	50.5
				CN1CCN(c2ccc(C3=NN(S(C)(=O)=O)C(c4ccc(N(C)C)cc4)C3)cc2)CC1 (stereo unspecified)	-18.5	0.6	-1.3
> 10	> 100	5.4	> 10	CN1CCN(c2ccc(C3=NN(C(=O)c4ccc(C(F)(F)F)cc4)C(c4ccc(N(C)C)cc4)C3)cc2)CC1 (stereo unspecified)	84.1	55.4	93.2
				Cc1ccc(S(=O)(=O)N2N=C(c3ccc(N4CCN(C)CC4)cc3)CC2c2ccc(N(C)C)cc2)cc1 (stereo unspecified)	32.2	10.7	38.1
				CN(C)c1ccc(C2CC(c3ccc(-n4cncn4)cc3)=NN2S(C)(=O)=O)cc1 (stereo unspecified)	10.8	7.8	-3.1
				CN1CCN(c2ccc(C3=NN(S(=O)(=O)c4ccc(OC(F)(F)F)cc4)C(c4ccc(N(C)C)cc4)C3)cc2)CC1 (stereo unspecified)	70.8	10.6	26.5
				CC(=O)N1N=C(c2ccc(-n3cncn3)cc2)CC1c1ccc(N(C)C)cc1 (stereo unspecified)	11	7.4	-0.3
				CN(C)c1ccc(C2CC(c3ccc(-n4ccnc4)cc3)=NN2)cc1 (stereo unspecified)	-20.9	7.6	0.1
				C=C(C)C(=O)N1N=C(c2ccc(-n3ccnc3)cc2)CC1c1ccc(N(C)C)cc1 (stereo unspecified)	1.6	4.3	-3.7
				CN(C)c1ccc(C2CC(c3ccc(-n4cncn4)cc3)=NN2S(=O)(=O)c2ccc(OC(F)(F)F)cc2)cc1 (stereo unspecified)	25.2	18.5	11.1
				CN(C)c1ccc(C2CC(c3ccc(-n4cncn4)cc3)=NN2C(=O)/C=C/c2ccccc2)cc1 (stereo unspecified)	-3.7	8.5	-2.3
				CN(C)c1ccc(C2CC(c3ccc(-n4cncn4)cc3)=NN2C(=O)c2ccc(C(F)(F)F)cc2)cc1 (stereo unspecified)	7	16.7	11.5
				CN1CCN(c2ccc(C3=NNC(c4ccc(N(C)C)cc4)C3)cc2)CC1 (stereo unspecified)	31.2	11.4	2.4

IC50 (A549) [µM]	IC50 (HeLa) [µM]	IC50 (HCC1806 [2]) [µM]	IC50 (HCT-116) [µM]	SMILES	inhibition at 10 µM (HCC1806 [1]) [%]	inhibition at 10 µM (MDA-MB-231) [%]	inhibition at 10 µM (NCI-H1975) [%]
				CN1CCN(c2ccc(C3=NN(S(=O)(=O)C4CC4)C(c4ccc(N(C)C)cc4)C3)cc2)CC1 (stereo unspecified)	4.7	3.7	0.2
				CN(C)c1ccc(C2CC(c3ccc(-n4cncn4)cc3)=NN2S(=O)(=O)c2ccc(C(F)(F)F)cc2)cc1 (stereo unspecified)	37	15.3	5.5
				CN(C)c1ccc(C2CC(c3ccc(-n4cncn4)cc3)=NN2C(=O)CCCl)cc1 (stereo unspecified)	-3.4	3.7	-0.7
				CN1CCN(c2ccc(C3=NN(C(=O)CCCl)C(c4ccc(N(C)C)cc4)C3)cc2)CC1 (stereo unspecified)	1.7	2.4	-0.2
				CN(C)c1ccc(C2CC(c3ccc(-n4cncn4)cc3)=NN2C(=O)c2ccc(F)cc2)cc1 (stereo unspecified)	15.6	12.5	-1.1
				CN(C)c1ccc(C2CC(c3ccc(-n4ccnc4)cc3)=NN2S(C)(=O)=O)cc1 (stereo unspecified)	11.3	12	-3.8
				CN(C)c1ccc(C2CC(c3ccc(-n4cncn4)cc3)=NN2S(=O)(=O)c2ccc(Br)cc2)cc1 (stereo unspecified)	26.3	10.4	-0.6
				COC(=O)CC(=O)N1N=C(c2ccc(-n3ccnc3)cc2)CC1c1ccc(N(C)C)cc1 (stereo unspecified)	2.1	2.3	-0.1
				CN(C)c1ccc(C2CC(c3ccc(-n4cncn4)cc3)=NN2C(=O)Cc2ccccc2)cc1 (stereo unspecified)	-6.9	2.9	-4
				CN(C)c1ccc(C2CC(c3ccc(-n4ccnc4)cc3)=NN2C(=O)CCCl)cc1 (stereo unspecified)	-5.2	2.1	-2.5
				CN(C)c1ccc(C2CC(c3ccc(-n4cncn4)cc3)=NN2)cc1 (stereo unspecified)	6.8	7	-3.3
				CN(C)c1ccc(C2CC(c3ccc(-n4ccnc4)cc3)=NN2C(=O)c2ccc(F)cc2)cc1 (stereo unspecified)	7.1	9.4	-3.5
				CN(C)c1ccc(C2CC(c3ccc(-n4ccnc4)cc3)=NN2C(=O)c2cc(Cl)cc(Cl)c2)cc1 (stereo unspecified)	44.5	48.8	58.7
				CN(C)c1ccc(C2CC(c3ccc(-n4ccnc4)cc3)=NN2C(=O)c2ccc(C(F)(F)F)cc2)cc1 (stereo unspecified)	28	17.9	15
9.6	> 10	6.1	> 10	CN1CCN(c2ccc(C3=NN(S(=O)(=O)c4ccc(F)cc4)C(c4ccc(N(C)C)cc4)C3)cc2)CC1 (stereo unspecified)	92.3	15.7	95.7
				CN(C)c1ccc(C2CC(c3ccc(-n4cncn4)cc3)=NN2S(=O)(=O)c2ccc(F)cc2)cc1 (stereo unspecified)	24.1	12.1	-0.5
> 10	> 10	8.65	> 10	CN1CCN(c2ccc(C3=NN(S(=O)(=O)c4ccc(Br)cc4)C(c4ccc(N(C)C)cc4)C3)cc2)CC1 (stereo unspecified)	87.1	23.7	70.8
				CN(C)c1ccc(C2CC(c3ccc(-n4ccnc4)cc3)=NN2S(=O)(=O)c2ccc([N+](=O)[O-])cc2)cc1 (stereo unspecified)	46.6	41.5	53
				COC(=O)CC(=O)N1N=C(c2ccc(N3CCN(C)CC3)cc2)CC1c1ccc(N(C)C)cc1 (stereo unspecified)	-8.3	-0.4	-2.2
				CN(C)c1ccc(C2CC(c3ccc(-n4ccnc4)cc3)=NN2C(=O)Cc2ccccc2)cc1 (stereo unspecified)	2	7.2	-5.5
				CC(=O)N1N=C(c2ccc(-n3ccnc3)cc2)CC1c1ccc(N(C)C)cc1 (stereo unspecified)	-9.7	5	-2.1
				CN(C)c1ccc(C2CC(c3ccc(-n4ccnc4)cc3)=NN2S(=O)(=O)c2ccc(C#N)cc2)cc1 (stereo unspecified)	4.7	7.1	0.7
